These results are taken from ChEMBL document CHEMBL6153169, “Menominin A and B: Cytotoxic Cyclodepsipeptides from the Freshwater Sponge-Associated Cyanobacterium Nostoc sp. UIC 10607” (J Nat Prod, 2025).

One experiment concerns OVCAR-3. The experiment in a line: Cytotoxicity against human OVCAR-3 cells assessed as inhibition of cell growth incubated for 72 hrs by CellTiter 96 Aqueous One Solution based assay. The experiment is classed as functional. Conditions: OVCAR-3, 72 h.
The subject of another experiment is MDA-MB-435. Nature of the experiment: Cytotoxicity against human MDA-MB-435 cells assessed as inhibition of cell growth incubated for 72 hrs by CellTiter 96 Aqueous One Solution based assay. Type of experiment: functional. Particulars: MDA-MB-435, 72 h.

On to `CCCCCC[C@@H]1CCCC[C@@H](O)[C@H](C)C(=O)O[C@@H]([C@H](C)CC)C(=O)N[C@@H](Cc2ccccc2)C(=O)O1`, for which the figures for the 50% inhibitory concentration (IC50) in the experiment on OVCAR-3 and in the experiment on MDA-MB-435 were 3100 nM and 5200 nM, respectively.

With `CCCCCC[C@@H]1CCCC[C@@H](O)[C@H](C)C(=O)O[C@@H](C(C)C)C(=O)N[C@@H](Cc2ccccc2)C(=O)O1`, the results for the IC50 in the experiment on OVCAR-3 and in the experiment on MDA-MB-435 were 2400 nM and 2900 nM, respectively.

On to `CC(=O)O[C@H]1C(=O)[C@@]2(C)[C@H]([C@H](OC(=O)c3ccccc3)[C@]3(O)C[C@H](OC(=O)[C@H](O)[C@@H](NC(=O)c4ccccc4)c4ccccc4)C(C)=C1C3(C)C)[C@]1(OC(C)=O)CO[C@@H]1C[C@@H]2O` [PACLITAXEL], for which the values for the 50% inhibitory concentration (IC50) with OVCAR-3 and in the experiment with MDA-MB-435 were 2.2 nM and 0.52 nM, respectively.

For orientation: IC50 means the concentration that inhibits the measured activity by half.
